Target: T1, RORα (Homo sapiens, UniProt P35398)
T1 construct: endogenous in cells; host or cells: Huh-7 (human hepatocellular carcinoma cells)
T1 sequence (P35398 1-523): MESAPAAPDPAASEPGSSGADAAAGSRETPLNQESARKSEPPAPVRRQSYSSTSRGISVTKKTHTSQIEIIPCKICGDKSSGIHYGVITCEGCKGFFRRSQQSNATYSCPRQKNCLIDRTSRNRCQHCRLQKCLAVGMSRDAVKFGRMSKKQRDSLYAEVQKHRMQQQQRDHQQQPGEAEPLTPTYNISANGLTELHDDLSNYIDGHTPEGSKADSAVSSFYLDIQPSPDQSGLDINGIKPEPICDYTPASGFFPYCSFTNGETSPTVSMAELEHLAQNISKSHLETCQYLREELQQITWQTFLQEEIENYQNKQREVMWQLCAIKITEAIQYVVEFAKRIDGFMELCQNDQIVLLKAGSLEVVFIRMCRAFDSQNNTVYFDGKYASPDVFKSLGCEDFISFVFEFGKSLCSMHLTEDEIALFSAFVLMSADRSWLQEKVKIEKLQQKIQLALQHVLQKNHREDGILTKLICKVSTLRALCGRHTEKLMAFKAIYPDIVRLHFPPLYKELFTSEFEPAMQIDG
Experiment: RORα activity by luciferase reporter (miR-122 promoter with WT or mutated RORE) in Huh-7 cells
Type: cell-based
Conditions: 24 hours of treatment
Experimental: Huh-7 cells were transfected with a luciferase reporter plasmid containing the miR-122 promoter (extends to −900 from the transcription start site) with intact wild-type (WT) RORα response element (RORE) or mutated RORE (mut). The cells were treated with Compound 1 one day (24 hours) post-transfection at the indicated concentrations. Luciferase expression was measured after 24 hours of treatment and normalized to Renilla Luciferase activity expressed from a co-transfected pRL plasmid. The pRL Vector, which provides constitutive expression of Renilla luciferase, was used in combination with a firefly luciferase vector to co-transfect cells. […]
Luciferase assay. […] Firefly and Renilla luciferase activity was assessed using the Dual Luciferase Reporter Assay system (Promega). Readings were taken in triplicates on a Mithras LB 940 Luminometer (Berthold Technologies). […]
Following transfections, the cells were lysed with passive lysis buffer (Cat #E1941; Promega), shaking for 20 min at RT and transferred into appropriate 96-well plate. Firefly and Renilla luciferase activity was assessed using the Dual Luciferase Reporter Assay system (Cat #E1910; Promega) on a luminometer Mithras 2000 (Centro XZ, LB960, Berthold Technologies, Bad Wildbad, Germany). […] Readings were taken in triplicate.

O=C1Nc2cc(C(=O)N3CCC(Cc4ccccc4)CC3)ccc2Nc2ccccc21 [Compound 1]
luciferase expression, mutated RORE (Huh-7, miR-122 promoter reporter with mutated RORE): negates activity | luciferase expression, WT RORE (Huh-7, miR-122 promoter reporter with wild-type RORE): dose-dependent increase

— patent US12318393B2, “Modulators of orphan nuclear receptors for NASH and other metabolic disorders” (Emory University, priority 2018, dated 2025)
